Experimental data reported in paper PMC6968383, “Design, synthesis, in vitro and in vivo evaluation of benzylpiperidine-linked 1,3-dimethylbenzimidazolinones as cholinesterase inhibitors against Alzheimer’s disease” (Journal of Enzyme Inhibition and Medicinal Chemistry, 2019).
Where two headings read alike, the source gives them in different places.

Experiments:
[1] = target: T1, BChE (EC 3.1.1.8) from horse serum (Equus caballus, UniProt P81908); assay: biochemical; settings: eqBChE; mean ± SEM of triplicate independent experiments; read-out: BChE IC50
T1 construct: horse serum BChE (eqBChE, Sigma-Aldrich); purchased Sigma-Aldrich; host or cells: horse serum
Experimental: (§1) The data were expressed as IC50 values (Table 1).
(§2) The inhibitory activities of the target compounds towards AChE (from Electrophorus electricus (electric eeAChE, Sigma-Aldrich) and horse serum BChE (eqBChE, Sigma-Aldrich) or human AChE – huAChE; human BuChE – huBuChE (huAChE, huBuChE, Sigma-Aldrich) were measured by Ellman’s method. In 96-well plates, a mixture of phosphate buffer (0.1 M, pH 8.0, […]), 5,5′-dithiobis-2-nitrobenzoic acid (DTNB, 60 µL), acetylcholinestrase or butyrylcholinesterase (20 µL, 5 IU/mL) and different concentration of the compound solution (30 µL) was pre-incubated for 5 min followed by the addition of the substrate (acetylthiocholine iodide or butyrylthiocholine iodide, 20 µL). […] The measurement of each concentration for each compound was detected in triplicate. GraphPad Prism 6.0 (GraphPad Software, Inc., La Jolla, CA) was used for data processing. The inhibition curve was fitted by plotting percentage enzyme activity (100% for the reference) versus the logarithm of the concentration of tested compound. The half-maximal inhibitory concentration (IC50) values were calculated according to the inhibition curve and the data were shown in the layout of mean ± SEM by GraphPad Prism 6.0.

[2] = target: T2, AChE (EC 3.1.1.7) from electric eel (Electrophorus electricus, UniProt O42275); assay: biochemical; format: biochemical; settings: for SI (selectivity index = AChE IC50/BChE IC50): eeAChE IC50 / eqBChE IC50; for IC50: eeAChE, mean ± SEM of triplicate independent experiments, read-out: AChE IC50
T2 construct: purchased Sigma-Aldrich
Experimental: as §1, §2

liver = assay: Liver histopathological study (HE staining); settings: 36 h after administration, compared to control group
Description: Figure 7. […] HE staining, original magnification ×200.

[3] = system: scopolamine-induced cognition impairment in ICR mice; assay: Morris water maze test, scopolamine-induced cognition impairment; format: in vivo; settings: oral 15 mg kg−1, scopolamine 1 mg kg−1 ip, probe trial on sixth day, mean ± SEM n = 6
Experimental: The test included 5 days of learning and memory training and a probe trial on the sixth day.
Scopolamine hydrobromide was supplied by Aladdin Reagents (H1507073, Shanghai, China).
Cognitive function was evaluated by the Morris water maze analysis-management system (SMART 3.0, Panlab, Madrid, Spain), according to the method previously described[30].The maze was placed in a lit room with visual cues at 25 °C. An escape platform (10 cm diameter) was located in the centre of one quadrant of the circular pool (120 cm diameter, 60 cm height) with a depth of 40 cm water. The behavioural study of each mouse included 5 days of learning and memory training and a probe trial on day 6. The animal starting positions faced to the pool wall, and were pseudorandomised for each trial. For the cognitive evaluation, each mouse was individually evaluated on both visible-platform (days 1–2) and hidden-platform (days 3–5) versions of the water maze. All mice received nonspatial pretraining during the first two training days, which prepared them for the subsequent spatial learning test. During the two days, mice were trained to find the platform that was labelled by a small flag (5 cm tall). The hidden platform version was used to determine the retention of memory to find the platform. During the hidden-platform training trials, the escape platform was placed 1 cm below the surface of the water. On each day, the animal was subjected to two trials, each of which lasted for 90 s. The time for the mouse to find the platform (a successful escape) was recorded. […] On the last day (day 6), the platform was removed from its location and the animals were given a probe trial in which they had 90 s to search for the platform. The time taken to reach the missing platform and the number of times the animals crossed the platform location were recorded.
Data for the time of escape latency, the trajectory travelled, and the number of platform location crossings were recorded by SMART 3.0, Panlab, Madrid, Spain and processed by GraphPad Prism 6.0.

[4] = format: in vivo; settings: serum, tacrine 30 mg kg−1, mean ± SEM n = 6
Experimental: . Heparinised serum was obtained after the treatment of 15b and 15j at 8, 22, and 36 h, respectively. The serum levels of ALT and AST are directly proportional to the severity of the liver damage. […]

T2 sequence (O42275 24-633): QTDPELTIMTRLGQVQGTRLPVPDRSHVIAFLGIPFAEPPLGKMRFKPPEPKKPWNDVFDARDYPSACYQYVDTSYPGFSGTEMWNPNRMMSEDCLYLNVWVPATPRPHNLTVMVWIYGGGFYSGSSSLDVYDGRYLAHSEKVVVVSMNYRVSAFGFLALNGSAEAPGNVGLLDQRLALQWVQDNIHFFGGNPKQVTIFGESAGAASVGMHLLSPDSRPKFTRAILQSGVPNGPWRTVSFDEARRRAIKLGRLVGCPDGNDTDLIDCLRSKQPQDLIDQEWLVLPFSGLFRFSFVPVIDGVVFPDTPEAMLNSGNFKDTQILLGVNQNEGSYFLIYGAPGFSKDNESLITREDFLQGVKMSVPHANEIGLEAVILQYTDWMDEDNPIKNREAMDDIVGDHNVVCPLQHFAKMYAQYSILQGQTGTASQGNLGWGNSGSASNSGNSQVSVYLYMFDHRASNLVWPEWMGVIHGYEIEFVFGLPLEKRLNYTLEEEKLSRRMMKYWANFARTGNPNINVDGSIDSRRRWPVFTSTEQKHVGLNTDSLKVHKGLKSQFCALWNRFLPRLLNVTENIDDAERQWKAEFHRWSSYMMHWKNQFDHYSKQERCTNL
T1 sequence (P81908 whole entry): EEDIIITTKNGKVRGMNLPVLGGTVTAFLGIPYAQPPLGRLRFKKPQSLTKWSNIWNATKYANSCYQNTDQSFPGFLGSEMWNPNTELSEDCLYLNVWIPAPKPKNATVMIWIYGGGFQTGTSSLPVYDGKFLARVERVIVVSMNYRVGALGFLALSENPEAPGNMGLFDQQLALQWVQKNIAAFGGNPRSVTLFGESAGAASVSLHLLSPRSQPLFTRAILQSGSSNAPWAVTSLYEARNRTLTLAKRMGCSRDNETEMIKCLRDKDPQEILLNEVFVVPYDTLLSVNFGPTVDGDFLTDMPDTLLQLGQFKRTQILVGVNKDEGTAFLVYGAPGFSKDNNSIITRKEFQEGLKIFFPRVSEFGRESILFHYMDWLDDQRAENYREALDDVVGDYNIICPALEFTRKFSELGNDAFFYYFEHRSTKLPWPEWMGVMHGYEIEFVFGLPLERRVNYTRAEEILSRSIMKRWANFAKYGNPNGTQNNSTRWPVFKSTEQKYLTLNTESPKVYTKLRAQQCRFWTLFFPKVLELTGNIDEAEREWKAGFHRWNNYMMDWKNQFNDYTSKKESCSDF

Compound | IC50 [1] | SI (selectivity index = AChE IC50/BChE IC50) [2] | IC50 [2] | morphologic changes in liver (liver) | Distance to target [3] | Latency to target [3] | ALT ([4]; 8 h after treatment) | AST ([4]; 8 h after treatment) | ALT ([4]; 22 h after treatment) | AST ([4]; 22 h after treatment) | ALT ([4]; 36 h after treatment) | AST ([4]; 36 h after treatment)
Cn1c(=O)n(C)c2cc(S(=O)(=O)NCC3CCN(Cc4cccc(Cl)c4)CC3)ccc21 [Compound 15g, N-((1–(3-chlorobenzyl)piperidin-4-yl)methyl)-1,3-dimethyl-2-oxo-2,3-dihydro-1H-benzo[d]imidazole-5-sulphonamide] | 1010 ± 460 nM | 0.15 | 150 ± 20 nM | – | – | – | – | – | – | – | – | –
Cn1c(=O)n(C)c2cc(S(=O)(=O)NCC3CCN(Cc4ccc(Cl)cc4)CC3)ccc21 [Compound 15h, N-((1–(4-chlorobenzyl)piperidin-4-yl)methyl)-1,3-dimethyl-2-oxo-2,3-dihydro-1H-benzo[d]imidazole-5-sulphonamide] | 2230 ± 810 nM | 0.87 | 1950 ± 280 nM | – | – | – | – | – | – | – | – | –
Cn1c(=O)n(C)c2cc(S(=O)(=O)NCC3CCN(Cc4ccccc4Br)CC3)ccc21 [Compound 15i, N-((1–(2-bromobenzyl)piperidin-4-yl)methyl)-1,3-dimethyl-2-oxo-2,3-dihydro-1H-benzo[d]imidazole-5-sulphonamide] | 220 ± 40 nM | – | 420 ± 60 nM | – | – | – | – | – | – | – | – | –
Nc1c2c(nc3ccccc13)CCCC2 [Tacrine] | – | – | – | did not result in remarkable morphologic changes in liver | 310.01 ± 9.54 cm | 12.06 ± 0.37 s | 32.7 ± 1.7 U/L | 95.1 ± 9.5 U/L | 31.7 ± 1.2 U/L | 108.9 ± 6.1 U/L | 35.8 ± 6.7 U/L | 110.4 ± 9.4 U/L
